Experimental data taken from ChEMBL document CHEMBL6121044, “Discovery of Novel Spirocyclic MAT2A Inhibitors Demonstrating High In Vivo Efficacy in MTAP-Null Xenograft Models” (J Med Chem, 2025).
Values after ≈ are worked out from the molar mass of the structure shown.

Key:
HCT-116 = assay: Antiproliferative activity against MTAP-knock out human HCT-116 cells assessed as maximal inhibition rate at 10 uM measured after 5 days by CTG assay relative to control; assay type: functional; details: time 5 day
[1] = Microsomal metabolic stability in human liver microsomes assessed as half life; assay type: ADME, Microsome
[2] = Clearance rate in male ICR mouse at 2 mg/kg, iv measured upto 24 hrs by LC-MS/MS analysis; assay type: ADME, organism-based; details: in vivo
[3] = target: T1, S-adenosylmethionine synthase isoform type-2 (Homo sapiens, UniProt P31153); assay: Inhibition of MAT2A in MTAP-knock out human HCT-116 cells assessed as inhibition of S-adenosylmethionine level; assay type: cell-based
T1 sequence (P31153 whole entry, canonical isoform): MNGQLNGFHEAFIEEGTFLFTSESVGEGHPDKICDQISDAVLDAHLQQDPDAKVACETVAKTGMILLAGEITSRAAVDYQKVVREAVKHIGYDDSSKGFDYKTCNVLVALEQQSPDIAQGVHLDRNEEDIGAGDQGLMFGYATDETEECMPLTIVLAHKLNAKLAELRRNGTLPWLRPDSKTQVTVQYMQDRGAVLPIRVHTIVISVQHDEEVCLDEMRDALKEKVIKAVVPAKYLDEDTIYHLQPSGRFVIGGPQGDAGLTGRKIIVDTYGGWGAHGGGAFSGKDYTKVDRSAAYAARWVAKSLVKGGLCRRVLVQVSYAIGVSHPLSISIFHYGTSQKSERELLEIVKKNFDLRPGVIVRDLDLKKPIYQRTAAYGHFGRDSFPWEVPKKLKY

[4] = Solubility of the compound in FaSSGF; assay type: physicochemical
[5] = Microsomal metabolic stability in human liver microsomes assessed as clearance; assay type: ADME, Microsome; details: read-out: CLH
[6] = Efflux ratio of apparent permeability in human Caco-2 cells; assay type: ADME, cell-based
[7] = Hepatic metabolic stability in Cynomolgus monkey hepatocyte assessed as half life; assay type: ADME, cell-based, Macaca fascicularis; details: hepatocytes
[8] = Volume of distribution at steady state in male Sprague-Dawley rat at 2 mg/kg, iv measured upto 24 hrs upto 24 hrs by LC-MS/MS analysis; assay type: ADME, organism-based; details: in vivo
[9] = Genotoxicity in Salmonella typhimurium TA1535; assay type: toxicity; details: salmonella enterica subsp. enterica serovar typhimurium
[10] = Oral bioavailability in beagle dog at 10 mg/kg measured upto 24 hrs upto 24 hrs by LC-MS/MS analysis; assay type: ADME, organism-based, Canis lupus familiaris; details: in vivo
[11] = Plasma protein binding in cynomolgus monkey assessed as unbound fraction; assay type: ADME, cell-free, Macaca fascicularis
[12] = Clearance rate in beagle dog at 2 mg/kg, iv measured upto 24 hrs upto 24 hrs by LC-MS/MS analysis; assay type: ADME, organism-based, Canis lupus familiaris; details: in vivo
Cytochrome P450 2C9 = Cytochrome P450 2C9 (Homo sapiens, UniProt P11712); assay: Inhibition of CYP2C9 (unknown origin); assay type: ADME
Sequence of Cytochrome P450 2C9 (P11712 whole entry): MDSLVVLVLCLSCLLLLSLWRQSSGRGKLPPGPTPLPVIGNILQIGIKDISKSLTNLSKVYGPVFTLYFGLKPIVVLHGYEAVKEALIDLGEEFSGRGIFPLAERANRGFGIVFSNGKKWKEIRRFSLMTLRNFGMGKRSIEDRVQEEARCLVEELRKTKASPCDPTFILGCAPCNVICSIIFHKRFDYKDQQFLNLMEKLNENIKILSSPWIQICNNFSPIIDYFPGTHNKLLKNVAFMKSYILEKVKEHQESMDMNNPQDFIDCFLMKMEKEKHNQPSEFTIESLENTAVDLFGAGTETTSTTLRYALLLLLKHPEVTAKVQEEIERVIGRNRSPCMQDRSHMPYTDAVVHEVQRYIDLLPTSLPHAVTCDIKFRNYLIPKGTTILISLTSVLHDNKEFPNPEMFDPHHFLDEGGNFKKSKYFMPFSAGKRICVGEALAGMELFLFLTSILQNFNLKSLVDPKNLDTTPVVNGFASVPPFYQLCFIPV

Cytochrome P450 2B6 = target: T2, Cytochrome P450 2B6 (Homo sapiens, UniProt P20813); assay: Inhibition of CYP2B6 (unknown origin); assay type: ADME
T2 sequence (P20813 whole entry): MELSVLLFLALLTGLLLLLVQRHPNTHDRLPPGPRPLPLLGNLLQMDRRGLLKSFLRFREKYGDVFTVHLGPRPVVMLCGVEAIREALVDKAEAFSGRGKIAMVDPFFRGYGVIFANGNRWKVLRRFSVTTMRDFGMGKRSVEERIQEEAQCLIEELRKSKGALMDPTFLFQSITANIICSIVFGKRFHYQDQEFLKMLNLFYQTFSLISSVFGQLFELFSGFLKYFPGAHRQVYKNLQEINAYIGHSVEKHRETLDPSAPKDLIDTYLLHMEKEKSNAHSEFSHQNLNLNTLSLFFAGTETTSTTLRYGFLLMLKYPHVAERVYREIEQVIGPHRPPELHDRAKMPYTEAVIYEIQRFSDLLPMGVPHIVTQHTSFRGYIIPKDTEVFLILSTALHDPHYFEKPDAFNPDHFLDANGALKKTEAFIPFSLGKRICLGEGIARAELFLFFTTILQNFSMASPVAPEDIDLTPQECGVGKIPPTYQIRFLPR

[13] = Lipophilicity, log D of compound at pH 7.4 byHPLC method; assay type: physicochemical; details: buffer
[14] = target: Voltage-gated inwardly rectifying potassium channel KCNH2 (Homo sapiens, UniProt Q12809); assay: Inhibition of hERG; assay type: toxicity
Sequence of Voltage-gated inwardly rectifying potassium channel KCNH2 (Q12809 whole entry): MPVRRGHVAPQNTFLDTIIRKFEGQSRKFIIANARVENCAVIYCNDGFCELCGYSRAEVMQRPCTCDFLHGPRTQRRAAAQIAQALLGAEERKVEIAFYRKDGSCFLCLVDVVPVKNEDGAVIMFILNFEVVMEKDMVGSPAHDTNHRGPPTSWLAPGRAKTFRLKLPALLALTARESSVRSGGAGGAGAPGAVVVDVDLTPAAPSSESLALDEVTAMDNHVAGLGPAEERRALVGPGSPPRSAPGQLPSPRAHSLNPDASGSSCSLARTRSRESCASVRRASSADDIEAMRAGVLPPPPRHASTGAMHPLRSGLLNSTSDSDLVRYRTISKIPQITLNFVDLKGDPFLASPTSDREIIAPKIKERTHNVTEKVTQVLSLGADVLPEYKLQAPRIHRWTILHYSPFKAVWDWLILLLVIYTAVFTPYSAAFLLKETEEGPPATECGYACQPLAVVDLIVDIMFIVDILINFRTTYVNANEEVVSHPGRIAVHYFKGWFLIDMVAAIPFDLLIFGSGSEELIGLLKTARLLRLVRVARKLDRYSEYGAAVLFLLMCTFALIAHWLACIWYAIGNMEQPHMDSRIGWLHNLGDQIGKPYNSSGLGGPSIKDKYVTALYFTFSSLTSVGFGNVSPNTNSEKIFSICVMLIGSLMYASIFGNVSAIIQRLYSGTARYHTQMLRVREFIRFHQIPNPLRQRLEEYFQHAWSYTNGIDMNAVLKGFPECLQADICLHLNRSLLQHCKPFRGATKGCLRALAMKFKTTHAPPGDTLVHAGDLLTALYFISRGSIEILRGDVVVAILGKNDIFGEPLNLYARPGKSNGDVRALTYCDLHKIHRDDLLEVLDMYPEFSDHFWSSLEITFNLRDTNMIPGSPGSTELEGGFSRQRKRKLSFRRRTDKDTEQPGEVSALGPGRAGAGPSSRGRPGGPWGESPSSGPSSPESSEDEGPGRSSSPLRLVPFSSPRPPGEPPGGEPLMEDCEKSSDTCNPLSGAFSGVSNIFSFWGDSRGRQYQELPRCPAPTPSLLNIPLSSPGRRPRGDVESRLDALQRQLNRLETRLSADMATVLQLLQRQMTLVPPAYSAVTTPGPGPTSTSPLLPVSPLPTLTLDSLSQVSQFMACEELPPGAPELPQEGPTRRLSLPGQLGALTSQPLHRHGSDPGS

[15] = Microsomal metabolic stability in rat liver microsomes assessed as half life; assay type: ADME, Microsome
[16] = Microsomal metabolic stability in dog liver microsomes assessed as half life; assay type: ADME, Canis lupus familiaris, Microsome
[17] = Half life in male Sprague-Dawley rat at 2 mg/kg, iv measured upto 24 hrs upto 24 hrs by LC-MS/MS analysis; assay type: ADME, organism-based; details: in vivo
[18] = Protein binding in mouse brain assessed as unbound fraction; assay type: ADME, tissue-based
[19] = target: T1, S-adenosylmethionine synthase isoform type-2; assay: Inhibition of MAT2A in wild type human HCT-116 cells assessed as inhibition of PRMT5-mediated symmetric […]-arginine (SDMA) level; assay type: cell-based
[20] = target: T3, UDP-glucuronosyltransferase 1A1 (Homo sapiens, UniProt P22309); assay: Inhibition of UGT1A1 (unknown origin)
T3 sequence (P22309 whole entry): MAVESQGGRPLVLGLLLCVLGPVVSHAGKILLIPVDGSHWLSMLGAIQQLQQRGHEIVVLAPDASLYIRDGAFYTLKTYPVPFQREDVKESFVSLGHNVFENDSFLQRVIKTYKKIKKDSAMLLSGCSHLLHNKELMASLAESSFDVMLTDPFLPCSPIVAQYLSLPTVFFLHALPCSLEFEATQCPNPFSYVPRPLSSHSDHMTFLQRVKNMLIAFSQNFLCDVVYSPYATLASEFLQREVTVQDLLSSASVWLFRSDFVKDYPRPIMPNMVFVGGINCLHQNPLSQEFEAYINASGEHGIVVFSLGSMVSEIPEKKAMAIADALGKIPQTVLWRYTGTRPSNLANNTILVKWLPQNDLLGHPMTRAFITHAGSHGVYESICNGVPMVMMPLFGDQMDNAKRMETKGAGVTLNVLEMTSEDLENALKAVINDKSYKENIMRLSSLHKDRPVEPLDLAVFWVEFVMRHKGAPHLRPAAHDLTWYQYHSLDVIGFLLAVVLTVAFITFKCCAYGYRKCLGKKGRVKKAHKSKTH

[21] = target: T1, S-adenosylmethionine synthase isoform type-2; assay: Inhibition of MAT2A in MTAP-knock out human HCT-116 cells assessed as inhibition of PRMT5-mediated symmetric […]-arginine (SDMA) level; assay type: cell-based
[22] = Microsomal metabolic stability in mouse liver microsomes assessed as clearance; assay type: ADME, Microsome; details: read-out: CLH
[23] = Oral bioavailability in male Sprague-Dawley rat at 10 mg/kg measured upto 24 hrs upto 24 hrs by LC-MS/MS analysis; assay type: ADME, organism-based; details: in vivo
[24] = Oral bioavailability in male ICR mouse at 10 mg/kg measured upto 24 hrs by LC-MS/MS analysis; assay type: ADME, organism-based; details: in vivo
[25] = Half life in beagle dog at 2 mg/kg, iv measured upto 24 hrs upto 24 hrs by LC-MS/MS analysis; assay type: ADME, organism-based, Canis lupus familiaris; details: in vivo
[26] = AUC (0 to infinity) in male ICR mouse at 10 mg/kg, po and 2 mg/kg, iv measured upto 24 hrs; assay type: ADME, organism-based; details: in vivo
[27] = target: T1, S-adenosylmethionine synthase isoform type-2; assay: Inhibition of MAT2A (unknown origin) assessed as release of inorganic phosphate using ATP/L-methionine pre-incubated for 30 mins followed by substrate addition measured after 2.5 hrs by colorimetric assay
[28] = Hepatic metabolic stability in dog hepatocyte assessed as half life; assay type: ADME, cell-based, Canis lupus familiaris; details: hepatocytes
[29] = Microsomal metabolic stability in mouse liver microsomes assessed as half life; assay type: ADME, Microsome
[30] = Half life in male Sprague-Dawley rat at 10 mg/kg, po measured upto 24 hrs upto 24 hrs by LC-MS/MS analysis; assay type: ADME, organism-based; details: in vivo
[31] = Half life in male ICR mouse at 10 mg/kg, po measured upto 24 hrs by LC-MS/MS analysis; assay type: ADME, organism-based; details: in vivo
[32] = Plasma protein binding in dog assessed as unbound fraction; assay type: ADME, cell-free, Canis lupus familiaris

half-life [1] [h]	clearance [2] [mL/min/kg]	IC50 [3] [nM]	solubility [4] [µM]	CLint scaled [5] [mL/min/kg]	efflux ratio [6]	half-life [7] [h]	Vdss [8] [L/kg]	fraction unbound [11]	clearance [12] [mL/min/kg]	IC50 (Cytochrome P450 2C9) [nM]	IC50 (Cytochrome P450 2B6) [nM]	logD [13]	half-life [15] [h]	half-life [16] [h]	t1/2 [17] [h]	fraction unbound [18]	SMILES	Imax (HCT-116) [%]	Activity [9]	IC50 [14] [nM]	further results
> 3.1	9.12	4	79.9 (≈ 27.5 µg/mL)	< 9.3	5.27	> 3.61	1.95	0.519	15.3	> 10000	> 10000	1.59	> 3.1	> 3.1	2.03	0.148	[2H]C([2H])([2H])NC1=NC(=O)[C@]2(CCc3ncccc32)c2cc(C(C)(F)F)ccc21	100	Non-toxic	> 40000	F ([10]; po, 10 mg/kg, 24 h): 165%; IC50 [19]: > 3000 nM; IC50 [20]: > 50000 nM; IC50 [21]: 2 nM; CLint scaled [22]: 37 mL/min/kg; bioavailability ([23]; male, Sprague-Dawley): 135%; bioavailability [24]: 132%; half-life [25]: 6.56 h; AUC(0-inf) [26]: 24900 ng·h/mL; IC50 [27]: 4 nM; half-life [28]: > 3.61 h; half-life [29]: > 2.46 h; half-life [30]: 2.35 h; half-life [31]: 2.37 h; fraction unbound [32]: 0.456
> 3.1	7.98	4	30.9 (≈ 10.8 µg/mL)	< 9.3	1.95	> 3.61	1.84	0.562	6.95	> 10000	> 10000	1.81	> 3.1	> 3.1	2.35	0.113	[2H]C([2H])([2H])NC1=NC(=O)[C@]2(CCc3ncccc32)c2cc(C(F)(F)F)ccc21	89.34	Non-toxic	> 40000	bioavailability ([10]; beagle): 130%; IC50 [19]: > 3000 nM; IC50 [20]: > 50000 nM; IC50 [21]: 1 nM; CLint scaled [22]: < 29.3 mL/min/kg; F ([23]; po, 10 mg/kg, 24 h): 171%; bioavailability [24]: 97%; half-life [25]: 6.91 h; AUC(0-inf) [26]: 39600 ng·h/mL; IC50 [27]: 4 nM; half-life [28]: > 3.61 h; half-life [29]: > 3.1 h; half-life [30]: 2.4 h; half-life [31]: 2.19 h; fraction unbound [32]: 0.497
